Columns and labels:
[1] = biological target: T1, HIV-1 IN mutant G140S/Q148H (Human immunodeficiency virus type 1 group M subtype B, UniProt P12497, G1287S/Q1295H); test: Gel-based IN strand transfer assay, G140S/Q148H mutant; type: biochemical
T1 construct: RAL-resistant HIV-1 mutant integrases; made in house; host or cells: E. coli RosettaII
Experimental: (§1) IN reactions were carried out by adding drugs or an equivalent volume of 100% DMSO (dimethyl sulfoxide, used as the drug solvent) to a mixture of 20 nM duplex DNA (21T/21B) and 400 nM IN in 50 mM MOPS pH 7.2, 7.5 mM MgCl2, and 14 mM 2-mercaptoethanol. Reactions were performed at 37 °C for 2 h and quenched by addition of an equal volume of loading buffer [formamide containing 1% SDS (sodium dodecyl sulfate), 0.25% bromophenol blue, and xylene cyanol]. Reaction products were separated in 16% polyacrylamide denaturing sequencing gels. Dried gels were visualized using a Typhoon 8600 (GE Healthcare, Piscataway, NJ, USA). Densitometric analyses were performed using the ImageQuant 5.1 software from GE Healthcare. Data analyses (linear regression, IC50 determination, and standard deviation) were performed using Prism 6.05 software from GraphPad.

HIV-1 IN mutant N155H = biological target: T2, HIV-1 IN mutant N155H (Human immunodeficiency virus type 1 group M subtype B, UniProt P12497, N1302H); test: biochemical; type: biochemical
T2 construct: RAL-resistant HIV-1 mutant integrases; made in house; host or cells: E. coli RosettaII
Experimental: as §1

HIV-1 IN [2] = biological target: T3, HIV-1 IN (Human immunodeficiency virus type 1 group M subtype B, UniProt P12497); test: Gel-based IN 3'-processing assay; type: biochemical; details: at least three independent experiments, read-out: In Vitro IC50 +/−SD, 3'-P
T3 construct: 250 nM of recombinant HIV-1 integrase; made in house; host or cells: E. coli RosettaII
Experimental: as §1

[3] = biological target: T4, isolated C-terminal domain (CTD) (220–288) (Human immunodeficiency virus type 1 group M subtype B, UniProt P12497); test: Schiff base IN-DNA crosslinking assay, isolated CTD; type: binding, HIV-1
T4 construct: the isolated C-terminal domain (CTD) (220–288); made in house; host or cells: E. coli RosettaII
From the text: To gain further evidence that NSC34931 interferes with DNA binding, and to determine the role of outer domains in this inhibition, we evaluated the ability of NSC34931 to inhibit the formation of IN-DNA crosslinks using our previously described Schiff base assay. Briefly, a deoxyuracyl nucleotide is incorporated in the DNA substrate to generate an abasic site via uracyl DNA glycosylase. IN forms a covalent complex (Schiff base), which can be stabilized by reduction with sodium borohydride (Figure 5A). Full-length IN, but also the isolated CCD or CTD domains, can crosslink DNA ([…]). Consistent with anisotropy data, NSC34931 suppresses the formation of IN-DNA crosslinks in the context of the full-length IN (Figure 5B, upper gel). Of note, the effective dose to inhibit this reaction is similar to that needed to inhibit 3′-P or ST (about 0.45 µM). In contrast, the IN CCD requires a 10 times higher concentration of compound to prevent DNA crosslinking, confirming that the NTD or the CTD are important for NSC34931 inhibition. Lastly, the same experiment was conducted with the isolated CTD (Figure 5B, lower gel).
Figure 5 Inhibition of IN-DNA binding by NSC34931. (A) Principle of the Schiff base crosslinking assay. An abasic site was introduced by uracil DNA glycosylase in the DNA substrate at the -12 position. […]

[4] = test system: VSV pseudo-typed HIV-1 virus particles; test: organism not typed; type: cell-based
HIV-1 IN [5] = biological target: T3, HIV-1 IN; test: Synergy test with the active site inhibitor MK-2048; type: biochemical; details: subinhibitory dose of stilbene disulfonic acid derivative; IC50 of MK-2048 not affected; data not shown
[6] = biological target: T5, isolated catalytic core domain (CCD) of IN (Human immunodeficiency virus type 1 group M subtype B, UniProt P12497); test: Disintegration reaction, isolated catalytic core domain; type: biochemical, HIV-1; details: branched substrate
T5 construct: the isolated catalytic core domain (CCD) (51–212); made in house; host or cells: E. coli RosettaII
From the text: Conventional IN strand transfer inhibitors bind at the interface created by the protein, viral DNA, and two magnesium cations in the catalytic site of the enzyme. Because stilbene disulfonic acid derivatives inhibit both 3′-P and ST with a similar efficiency, they may act outside the IN catalytic site. To determine if IN domains other than the catalytic core domain (CCD) are involved in the inhibitory activity of NSC34931, we tested this compound on disintegration, the only IN-mediated reaction that can be catalyzed by the isolated CCD. Disintegration is equivalent to a reverse-ST reaction (Figure 3A). Using a branched substrate, the WT enzyme as well as the isolated CCD catalyzed disintegration with similar efficiency (Figure 3B). NSC34931 inhibited disintegration catalyzed by the full-length IN at concentrations above 4.1 µM (Figure 3B,C). However, NSC34931 was unable to inhibit disintegration catalyzed by the CCD at concentrations up to 37 µM (Figure 3B,C). These experiments indicate that the N-terminal domain (NTD) and/or the C-terminal domain (CTD) are essential for IN inhibition by NSC34931.
Figure 3 Inhibition of the disintegration reaction by NSC34931. (A) Schematic representation of the disintegration reaction. […]

Question: What does the source list for `O=S(=O)(O)c1cc(/N=N/c2cc(S(=O)(=O)O)c3ccccc3c2O)ccc1/C=C/c1ccc(/N=N/c2cc(S(=O)(=O)O)c3ccccc3c2O)cc1S(=O)(=O)O` [NSC34931]?
Answer: IC50 [1]: 120 nM; IC50 (HIV-1 IN mutant N155H): 160 nM; IC50 (HIV-1 IN [2]): 320 ± 120 nM; inhibition of CTD-DNA crosslinks [3]: in the same concentration range than in the context of the full-length enzyme; Selectivity Index SI [4]: 19.2; EC50 ([4]; read-out: Ex Vivo Antiviral Activity EC50): 3070 nM; synergy with active site inhibitor MK-2048 (HIV-1 IN [5]): could not see any cooperative effect; concentration up to which disintegration is not inhibited [6]: > 37 µM
